Test results taken from patent EP0241395A2, “Sweeteners derived from n-phenylguanidinoacetic and n-phenylethananamidinacetic acids, and compositions containing such sweeteners” (UNIVERSITE CLAUDE BERNARD - LYON 1, priority 1986, dated 1987).

Tested on: groupe de huit goûteurs expérimentés
Experiment: Sweetening power judged by a panel of eight experienced tasters against a sucrose reference solution
Type: in vivo
Conditions: weight basis; for Pouvoir édulcorant: Table II, relative to a 2 % sucrose solution; for pouvoir édulcorant, sur une base pondérale: approximate
Text: Le pouvoir édulcorant des composés préparés dans les exemples suivants a été évalué par un groupe de huit goûteurs expérimentés. Pour cela, les composés, en solution aqueuse à des concentrations variables, sont comparés, sur le plan gustatif, à une solution témoin de saccharose à 2 % et dans certains cas à 5 % et 10 %, c'est-à-dire à des concentrations correspondant à celles utilisées lors d'un usage courant. Le pouvoir sucrant des édulcorants de synthèse varie en effet suivant la concentration de la solution de saccharose utilisée comme référence. Le pouvoir édulcorant du composé testé par rapport au saccharose correspond alors au rapport pondéral qui existe entre le composé et le saccharose à égale intensité édulcorante, c'est-à-dire quand les saveurs sucrées de la solution du composé testé et de la solution témoin de saccharose sont considérées, par une majorité de goûteurs, avoir la même intensité édulcorante.

[1] = by comparison with a 2 % sucrose solution
[2] = by comparison with a 5 % sucrose solution
[3] = by comparison with a 10 % sucrose solution

Row | Structure (SMILES) | Pouvoir édulcorant | pouvoir édulcorant, sur une base pondérale [1] | pouvoir édulcorant, sur une base pondérale [2] | pouvoir édulcorant, sur une base pondérale [3]
1 | Cc1cc(C)cc(N=C(NCC(=O)O)N(C)Cc2ccccc2)c1 [Exemple 88, acide N-[N-méthyl-N-benzylamino (3,5-diméthylphénylimino)méthyl]-2-aminoéthanoïque] | 5000 | ~5 000 fois celui du saccharose |  | 
2 | C[C@H](NC(=Nc1ccc(Cl)cc1)NCC(=O)O)c1ccccc1 [Exemple 13, acide N-[N-(S)-α-méthylbenzylamino (4-chlorophénylimino)méthyl]-2-aminoéthanoïque] | 3000 | ~3 000 fois celui du saccharose |  | 
3 | N#Cc1ccc(NC(=NC2CCCCCCC2)NCC(=O)O)cc1 [Exemple 47, acide N-[N-cyclooctylamino-(4-cyanophénylimino)méthyl]-2-aminoéthanoïque] | 170000 | ~170 000 fois celui du saccharose | ~130 000 fois celui du saccharose | ~100 000 fois celui du saccharose
4 | O=C(O)CNC(=NS(=O)(=O)c1ccccc1)Nc1cccc(Cl)c1 [Exemple 79, acide N-[phénylsulfonylimino (3-chlorophénylamino)méthyl]-2-aminoéthanoique] | 17000 | ~17 000 fois celui du saccharose |  | 
5 | Cc1cc(C)cc(N=C(NCC(=O)O)N[C@@H](C)c2ccccc2)c1 [Exemple 25, acide N-[N-(S)-α-méthylbenzylamino (3,5-diméthylphénylimino)méthyl]-2-aminoéthanoïque] | 30000 | ~30 000 fois celui du saccharose |  | 
6 | N#Cc1ccc(N=C(NCCc2ccccc2)NCC(=O)O)cc1 [Exemple 53, acide N-[N-phényléthylamino(4-cyanophénylimino)méthyl]-2-aminoéthanoïque] | 8 500 | ~8 500 fois celui du saccharose | ~6 100 fois celui du saccharose | ~4 200 fois celui du saccharose
7 | N#Cc1ccc(N=C(NCC(=O)O)NC23CC4CC(CC(C4)C2)C3)cc1 [Exemple 71, acide N-[N-(1-adamantyl)amino(4-cyanophénylimine)méthyl]-2-8minoéthanoique] | 3 500 | ~3 500 fois celui du saccharose |  | 
8 | N#Cc1ccc(N=C(NCC(=O)O)NC2CCCCCCCC2)cc1 [Exemple 50, acide N-[N-cyclononylamino(4-cyanophénylimino)méthyl]-2-aminoéthanoïque] | 200000 | ~200 000 fois celui du saccharose |  | 
9 | O=C(O)CNC(=Nc1ccc(Cl)cc1)NCC1CCCCC1 [Exemple 58, acide N-[N-cyclohexylméthylamino(4-chlorophénylimino)méthyl]-2-aminoéthanoïque] | 3500 | ~3 500 fois celui du saccharose | ~2 700 fois celui du saccharose | ~1 500 fois celui du saccharose
10 | CC(C)CCNC(=Nc1ccc(C#N)cc1)NCC(=O)O [Exemple 37, acide N-[N-(3-méthylbutyl)amino (4-cyanophénylimino)méthyl)-2-aminoéthanoïque] | 200 | ~200 fois celui du saccharose |  | 
11 | C[C@H](NC(=Nc1cccc(Cl)c1)NCC(=O)O)c1ccccc1 [Exemple 6, acide N-[N-(S)-α-méthylbenzylamino (3-chlorophénylimino)méthyl]-2-aminoéthanoïque] | 30000 | ~30 000 fois celui du saccharose |  | 
12 | C[C@H](NC(=Nc1ccc(C(F)(F)F)cc1)NCC(=O)O)c1ccccc1 [Exemple 11, acide N-[N-(S)-α-méthylbenzylamino (4-trifluorométhylphénylimino)méthyl]-2-aminoéthanoïque] | 500 | ~500 fois celui du saccharose |  | 
